Measurements taken from US9452159B2, “6-aminopyridine-3-ol derivatives or pharmaceutically acceptable salts thereof, and pharmaceutical composition containing same as active ingredients for preventing or treating diseases caused by angiogenesis” (Research Cooperation Foundation of Yeungnam University, priority 2011, dated 2016).
Where two headings read alike, the source gives them in different places.

How the values were obtained:
[1] = system: chorioallantoic membrane (CAM); assay: Chorioallantoic membrane (CAM) assay, VEGF-derived angiogenesis; format: in vivo, chick; settings: for angiogenesis inhibiting effects: VEGF-treated CAM, summary of Table 1, 6a compared with SU4312, batimastat and α-tocopherol
Method: To examine angiogenesis inhibiting effects in vivo, CAM assay was performed (Nguyen Metal., Microvascular Res., 47, pp 31-40, 1994). Hen's fertile eggs were incubated at a temperature of 37° C. and in relative humidity 55%, and on the 10th day after the incubation, an air sac site was punched by using a hypodermic needle (Greencross Medical Science Corp, Korea) to form a first hole, and then, a planar site of the fertile egg where a window was to be formed was punched to form a second hole. Air was removed through the first pore of the air sac site to allow the chorioallantoic membrane (CAM) to be separated from the shell of the fertile egg, and this site was cut by using a grinding wheel (Multipro 395JA, Dremel, Mexico) to form a window. […] Through the window, the filter disc was placed on blood vessels, which were then treated with the compounds each dissolved in dimethylsulfoxide (DMSO) and diluted with phosphate buffer solution (PBS) at various concentrations. 3 days after the treatment with the compounds, the CAM site with the filter disc placed thereon was separated, and then washed with a phosphate buffer solution, and an image thereof was obtained by using a stereomicroscope (Stemi SV6 stereomicroscope, Carl Zeiss, Germany) and image-Pro Plus software (Media Cybernetics; Silver Spring, Md., U.S.A.) to count the number of blood vessel branches, and the obtained results were assayed.

A549 lung cancer cells = assay: Oncogenesis-derived angiogenesis and tumor growth on CAM inoculated with A549 lung cancer cells; format: in vivo, chick; settings: A549 cells 1.5×10^6 cell/CAM, various concentrations, five days after inoculation; FIG. 4
Method: Hen's fertile eggs were incubated, and on the 9th day, a window was formed in the same manner as in Experimental Example 1, and instead of a disc, A549 lung cancer cells were mixed with matrigel at a ratio of 1:1, and then the cells were treated with Compounds 6a and 6i and inoculated at a concentration of 1.5×10^6 cell/CAM. Five days after the inoculation, the CAM site where tumors developed was separated and washed with a phosphate buffer solution, and then, an image thereof was obtained by using a stereomicroscope (Stemi SV6 stereomicroscope, Carl Zeiss, Germany) and Image-Pro Plus software (Media Cybernetics; Silver Spring, Md., U.S.A.) to count the number of blood vessel branches, and the results were assayed.

HUVEC cells = assay: VEGF-derived ROS scavenging ability (DCF-DA fluorescence); format: cell-based; settings: HUVEC pretreated 3 hours, then VEGF 15 minutes, compared to VEGF, FIG. 5
Method: DCF-DA (2′,7′-dichlorofluorescein diacetate) was used to measure a VEGF-derived ROS scavenging ability in HUVEC cells. When ROS exists in cells, DCF-DA is oxidized into fluorescent DCF, thereby emitting green fluorescent light. 1×10^5 concentration of HUVEC was spread onto a 0.2% gelatin coated 8-well plate, and then incubated for 24 hours. The cells were pretreated with Compounds 6a or 6i for 3 hours and then, treated with VEGF for 15 minutes, and then, washed three times with PBS (pH 7.4), and then, 10 μM of DCF-DA was added to EBM-2 medium, which was then placed in dark condition for 30 minutes. Then, the cells were washed three times with PBS, and a degree of intracellular fluorescence was measured by using a fluorescent microscope.

[2] = Gallus gallus, 72 h, VEGF (50 ng/CAM) + 3.0 ng/CAM, 1.3 μM, 3 days after treatment, read-out: Inhibition ratio
[3] = VEGF (50 ng/CAM) + 3.0 ng/CAM, 1.3 μM, 3 days after treatment
[4] = Gallus gallus, 72 h, VEGF (50 ng/CAM) + 3.0 ng/CAM, 1.0 μM, 3 days after treatment, read-out: Inhibition ratio
[5] = VEGF (50 ng/CAM) + 3.0 ng/CAM, 1.0 μM, 3 days after treatment
[6] = Gallus gallus, 72 h, VEGF (50 ng/CAM) + 3.0 ng/CAM, 1.1 μM, 3 days after treatment, read-out: Inhibition ratio
[7] = VEGF (50 ng/CAM) + 3.0 ng/CAM, 1.1 μM, 3 days after treatment
[8] = Gallus gallus, 72 h, VEGF (50 ng/CAM) + 2.0 ng/CAM, 1.0 μM, 3 days after treatment, read-out: Inhibition ratio
[9] = VEGF (50 ng/CAM) + 2.0 ng/CAM, 1.0 μM, 3 days after treatment
[10] = VEGF (50 ng/CAM) + 1.0 μg/CAM, 378 μM, 3 days after treatment
[11] = VEGF (50 ng/CAM) + 3.0 ng/CAM, 0.7 μM, 3 days after treatment
[12] = VEGF (50 ng/CAM) + 100 ng/CAM, 23 μM, 3 days after treatment

For `CNC(=O)[C@H](Cc1ccccc1)NC(=O)[C@H](CC(C)C)[C@H](CSc1cccs1)C(=O)NO` [Batimastat, reference compound], the inhibition in vivo at 200 µM ([1]; Gallus gallus, 72 h, VEGF (50 ng/CAM) + 1.0 μg/CAM, 200 μM, 3 days after treatment, read-out: Inhibition ratio) was 78.4 ± 7.4% and the “Number of blood vessel branches/main blood vessel” value ([1]; VEGF (50 ng/CAM) + 1.0 μg/CAM, 200 μM, 3 days after treatment) was 19.9 ± 2.87^8.
`CCCCCCNc1nc(C)c(O)c(C)c1C` [Compound 6b, 6-(hexylamino)-2,4,5-trimethylpyridin-3-ol] was tested, and the inhibition in vivo at 1.3 µM [1, 2] was 53.7 ± 10.3% and the “Number of blood vessel branches/main blood vessel” value [1, 3] was 26.3 ± 2.0^8.
In the case of `CCCCCCCCCCCCCCCCNc1nc(C)c(O)c(C)c1C` [Compound 6c, 6-(hexadecylamino)-2,4,5-trimethylpyridin-3-ol], the inhibition in vivo at 0.8 µM ([1]; Gallus gallus, 72 h, VEGF (50 ng/CAM) + 3.0 ng/CAM, 0.8 μM, 3 days after treatment, read-out: Inhibition ratio) is reported as 30.1 ± 20% and the “Number of blood vessel branches/main blood vessel” value ([1]; VEGF (50 ng/CAM) + 3.0 ng/CAM, 0.8 μM, 3 days after treatment) is reported as 30.8 ± 3.8^8.
For `Cc1nc(NCCCO)c(C)c(C)c1O` [Compound 6d-1, 6-((3-hydroxypropyl)amino)-2,4,5-trimethylpyridin-3-ol], the inhibition in vivo at 1.4 µM ([1]; Gallus gallus, 72 h, VEGF (50 ng/CAM) + 3.0 ng/CAM, 1.4 μM, 3 days after treatment, read-out: Inhibition ratio) was 46.3 ± 12% and the “Number of blood vessel branches/main blood vessel” value ([1]; VEGF (50 ng/CAM) + 3.0 ng/CAM, 1.4 μM, 3 days after treatment) was 27.8 ± 2.3^8.
`Cc1nc(NCCCOc2nc(C)c(O)c(C)c2C)c(C)c(C)c1O` [Compound 6d-2, 6-(3-((5-hydroxy-3,4,6-trimethylpyridin-2-yl)amino)propoxy)-2,4,5-trimethylpyridin-3-ol] was tested, and the inhibition in vivo at 1 µM ([1]; Gallus gallus, 72 h, VEGF (50 ng/CAM) + 3.5 ng/CAM, 1.0 μM, 3 days after treatment, read-out: Inhibition ratio) was 67.3 ± 13.9%, the “Number of blood vessel branches/main blood vessel” value ([1]; VEGF (50 ng/CAM) + 3.5 ng/CAM, 1.0 μM, 3 days after treatment) was 26.2 ± 4.4^8 and the angiogenesis inhibiting effects [1] was “excellent angiogenesis inhibiting effects”.
`Cc1nc(NC2CCCCC2)c(C)c(C)c1O` [Compound 6e, 6-(cyclohexylamino)-2,4,5-trimethylpyridin-3-ol] was tested, and the inhibition in vivo at 1.3 µM [1, 2] was 36.8 ± 10.7% and the “Number of blood vessel branches/main blood vessel” value [1, 3] was 35.3 ± 4.0^8.
In the case of `Cc1nc(NCc2ccccc2)c(C)c(C)c1O` [Compound 6f, 6-(benzylamino)-2,4,5-trimethylpyridin-3-ol], the inhibition in vivo at 1.2 µM ([1]; Gallus gallus, 72 h, VEGF (50 ng/CAM) + 3.0 ng/CAM, 1.2 μM, 3 days after treatment, read-out: Inhibition ratio) is reported as 56.7 ± 16.8% and the “Number of blood vessel branches/main blood vessel” value ([1]; VEGF (50 ng/CAM) + 3.0 ng/CAM, 1.2 μM, 3 days after treatment) is reported as 25.8 ± 3.2^8.
With `Cc1nc(Nc2ccccc2)c(C)c(C)c1O` [Compound 6g, 2,4,5-trimethyl-6-(phenylamino)pyridin-3-ol] the inhibition in vivo at 1.3 µM [1, 2] was 69.4 ± 5.7%, the “Number of blood vessel branches/main blood vessel” value [1, 3] was 23.3 ± 1.1^8 and the angiogenesis inhibiting effects [1] was “excellent angiogenesis inhibiting effects”.
With `Br.Cc1nc(Nc2ccccc2)c(C)c(C)c1O` [Compound 6g-HBr, 2,4,5-trimethyl-6-(phenylamino)pyridin-3-ol hydrobromide] the inhibition in vivo at 1 µM [1, 4] was 55 ± 10.6% and the “Number of blood vessel branches/main blood vessel” value [1, 5] was 28.6 ± 3.9^8.
With `Cc1nc(Nc2ccccc2C(C)C)c(C)c(C)c1O` [Compound 6h, 6-((2-isopropylphenyl)amino)-2,4,5-trimethylpyridin-3-ol] the inhibition in vivo at 1.1 µM [1, 6] was 55.3 ± 20.3% and the “Number of blood vessel branches/main blood vessel” value [1, 7] was 28.4 ± 2.7^8.
For `Cc1nc(Nc2ccc([N+](=O)[O-])cc2)c(C)c(C)c1O` [Compound 6i, 2,4,5-trimethyl-6-((4-nitrophenyl)amino)pyridin-3-ol], the inhibition in vivo at 1 µM [1, 4] was 74.9 ± 4.9%, the IC50 ([1]; Gallus gallus, CAM treated with various concentrations, FIG. 3, read-out: IC50 with respect to angiogenesis inhibition) was 1.8 nM and the “Number of blood vessel branches/main blood vessel” value [1, 5] was 26.3 ± 1.6^8. The oncogenesis-derived angiogenesis (A549 lung cancer cells) was “inhibited”, the tumor growth (A549 lung cancer cells) was “inhibited” and the “degree of intracellular fluorescence (VEGF-derived ROS)” value (HUVEC cells) was “substantial decrease”.
`Cc1nc(Nc2ccc(Br)cc2)c(C)c(C)c1O` [Compound 6j, 6-((4-bromophenyl)amino)-2,4,5-trimethylpyridin-3-ol] was tested, and the inhibition in vivo at 1 µM [1, 4] was 61.7 ± 7.7% and the “Number of blood vessel branches/main blood vessel” value [1, 5] was 30.7 ± 2.6^8.
With `Cc1nc(Nc2ccc3c(c2)OCO3)c(C)c(C)c1O` [Compound 6k, 6-(benzo[d][1,3]dioxol-5-ylamino)-2,4,5-trimethylpyridin-3-ol] the inhibition in vivo at 1.1 µM [1, 6] was 62.4 ± 11.6%, the “Number of blood vessel branches/main blood vessel” value [1, 7] was 25.8 ± 4.3^8 and the angiogenesis inhibiting effects [1] was “excellent angiogenesis inhibiting effects”.
`Cc1nc(N(c2ccccc2)c2ccccc2)c(C)c(C)c1O` [Compound 6l, 6-(diphenylamino)-2,4,5-trimethylpyridin-3-ol] was tested, and the inhibition in vivo at 1 µM [1, 4] was 65.4 ± 14.6%, the “Number of blood vessel branches/main blood vessel” value [1, 5] was 26.8 ± 4.6^8 and the angiogenesis inhibiting effects [1] was “excellent angiogenesis inhibiting effects”.
With `Cc1nc(N2CCCC2)c(C)c(C)c1O` [Compound 6m, 2,4,5-trimethyl-6-(pyrrolidin-1-yl)pyridin-3-ol] the inhibition in vivo at 1 µM [1, 8] was 60.5 ± 12.7%, the “Number of blood vessel branches/main blood vessel” value [1, 9] was 27.6 ± 4.2^8 and the angiogenesis inhibiting effects [1] was “excellent angiogenesis inhibiting effects”.
`Cc1nc(N2CCN(C)CC2)c(C)c(C)c1O` [Compound 6n, 2,4,5-trimethyl-6-(4-methylpiperazin-1-yl)pyridin-3-ol] was tested, and the inhibition in vivo at 1 µM [1, 8] was 24.7 ± 21.3% and the “Number of blood vessel branches/main blood vessel” value [1, 9] was 39.8 ± 6.8^8.
With `Cc1nc(N2CCOCC2)c(C)c(C)c1O` [Compound 6o, 2,4,5-trimethyl-6-morpholinopyridin-3-ol] the inhibition in vivo at 1 µM [1, 8] was 59 ± 11% and the “Number of blood vessel branches/main blood vessel” value [1, 9] was 28.8 ± 3.7^8.
For `Cc1nc(-n2cccc2)c(C)c(C)c1O` [Compound 6p, 2,4,5-trimethyl-6-(1H-pyrrol-1-yl)pyridin-3-ol], the inhibition in vivo at 1 µM [1, 8] was 44 ± 17.2% and the “Number of blood vessel branches/main blood vessel” value [1, 9] was 33.6 ± 5.5^8.
With `Cc1nc(N(C)c2ccccn2)c(C)c(C)c1O` [Compound 6q, 2,4,5-trimethyl-6-(methyl(pyridin-2-yl)amino)pyridin-3-ol] the inhibition in vivo at 1 µM ([1]; Gallus gallus, 72 h, VEGF (50 ng/CAM) + 2.4 ng/CAM, 1.0 μM, 3 days after treatment, read-out: Inhibition ratio) was 42.2 ± 21.7% and the “Number of blood vessel branches/main blood vessel” value ([1]; VEGF (50 ng/CAM) + 2.4 ng/CAM, 1.0 μM, 3 days after treatment) was 34.2 ± 6.9^8.
With `CN(C)c1ccc(/C=C2\C(=O)Nc3ccccc32)cc1` [SU4312, reference compound] the Inhibition ratio [1, 10] was 74.6 ± 12.1^8 and the “Number of blood vessel branches/main blood vessel” value [1, 10] was 24 ± 4.6^8.
For `Cc1c(C)c2c(c(C)c1O)CC[C@@](C)(CCC[C@H](C)CCC[C@H](C)CCCC(C)C)O2` [α-Tocopherol, reference compound], the Inhibition ratio [1, 11] was 45.1 ± 9.3^8, the “Number of blood vessel branches/main blood vessel” value [1, 11] was 32.3 ± 3.5 and the Inhibition ratio [1, 12] was 64.4 ± 14.2^8. For the same compound, the “Number of blood vessel branches/main blood vessel” value [1, 12] was 24.3 ± 2.7^8.
